Measurements: article doi:10.1101/2023.10.24.563883v2 (biorxiv, 2024)

Molecular target: T1, LPHN2 (Homo sapiens, UniProt O95490)
T1 sequence (O95490 26-1459): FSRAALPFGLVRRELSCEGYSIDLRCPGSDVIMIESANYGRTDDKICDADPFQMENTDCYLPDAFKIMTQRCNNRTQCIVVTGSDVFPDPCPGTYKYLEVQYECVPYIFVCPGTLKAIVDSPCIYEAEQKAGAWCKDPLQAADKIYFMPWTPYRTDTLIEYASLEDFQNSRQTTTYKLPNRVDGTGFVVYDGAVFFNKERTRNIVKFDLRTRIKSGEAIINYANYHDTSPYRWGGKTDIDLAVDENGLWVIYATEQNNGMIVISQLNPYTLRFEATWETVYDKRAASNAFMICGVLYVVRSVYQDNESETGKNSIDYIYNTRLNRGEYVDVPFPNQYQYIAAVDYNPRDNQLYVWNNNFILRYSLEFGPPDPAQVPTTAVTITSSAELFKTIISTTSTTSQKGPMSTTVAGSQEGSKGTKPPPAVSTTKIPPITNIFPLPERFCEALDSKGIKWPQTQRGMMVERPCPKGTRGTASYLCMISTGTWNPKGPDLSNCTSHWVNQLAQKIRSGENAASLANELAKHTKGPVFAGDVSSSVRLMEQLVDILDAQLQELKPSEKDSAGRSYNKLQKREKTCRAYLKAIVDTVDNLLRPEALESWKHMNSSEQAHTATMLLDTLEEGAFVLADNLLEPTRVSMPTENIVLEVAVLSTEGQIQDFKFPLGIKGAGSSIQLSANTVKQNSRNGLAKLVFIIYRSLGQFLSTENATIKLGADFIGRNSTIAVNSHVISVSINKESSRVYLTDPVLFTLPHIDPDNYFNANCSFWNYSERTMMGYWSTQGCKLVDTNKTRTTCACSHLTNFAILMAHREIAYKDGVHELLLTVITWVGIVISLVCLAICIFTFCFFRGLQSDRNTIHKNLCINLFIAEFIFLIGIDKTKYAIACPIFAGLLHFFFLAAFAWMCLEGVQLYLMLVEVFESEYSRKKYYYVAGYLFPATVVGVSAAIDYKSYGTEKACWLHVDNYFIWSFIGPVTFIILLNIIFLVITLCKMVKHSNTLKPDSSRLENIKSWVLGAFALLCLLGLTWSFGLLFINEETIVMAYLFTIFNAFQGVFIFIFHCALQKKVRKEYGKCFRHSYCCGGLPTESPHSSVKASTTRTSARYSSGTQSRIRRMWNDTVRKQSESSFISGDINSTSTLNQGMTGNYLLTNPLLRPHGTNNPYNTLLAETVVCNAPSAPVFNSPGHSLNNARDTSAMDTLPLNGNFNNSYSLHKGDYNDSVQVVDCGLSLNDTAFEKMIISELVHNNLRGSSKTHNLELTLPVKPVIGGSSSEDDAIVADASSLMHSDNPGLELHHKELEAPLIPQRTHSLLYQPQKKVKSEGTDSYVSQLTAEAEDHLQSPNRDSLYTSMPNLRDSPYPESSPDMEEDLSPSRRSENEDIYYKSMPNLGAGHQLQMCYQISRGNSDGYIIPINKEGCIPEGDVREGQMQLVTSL
Assay: BRET G protein
Type: cell-based

EC50: 39.9 ± 16.2 nM
Structure (SMILES): COc1ccc(OC)c(NC2=NC(=O)CC(C(=O)Nc3cc(C(F)(F)F)ccc3Cl)S2)c1 (stereo not shown) [D11]
